From patent US9101616B2, “Aryl substituted carboxamide derivatives as calcium or sodium channel blockers” (RaQualia Pharma Inc., priority 2009, dated 2015)

target: T1, human T-type channel alpha-1H (CaV 3.2) (Homo sapiens, UniProt O95180); test: Ca2+ Influx Assay (cell-based fluorescent, FDSS); settings: HEK 293 cells expressing human CaV 3.2
T1 construct: expressed in transfected cells; host or cells: HEK 293
Experimental: Inhibition of T-type calcium channel activity was determined by cell-based flu-orescent Ca^2+ influx assay, in which potassium ionophore was added to decrease resting membrane potential and extra-cellular high-K^+ stimulation was used to modulate the membrane potential of the cell. The changes in fluorescent signal were monitored by the cell imaging technology by Hamamatsu Photonics's Functional Drug Screening System (FDSS).
HEK 293 cells expressing the human T-type channel alpha-1H (CaV 3.2) were maintained in DMEM supplemented with 10% heat-inactivated FBS, 100 units/ml Penicillin, 100 microg/ml Streptomycin, 150 microg/ml Zeocin, 300 microg/ml Geneticin. The cells were grown in a 5% CO2 humidified incubator at 37° C.
• 1. Cells were harvested and seeded in a poly-D-lysine coated black-sided clear bottom 384-well plate at density of 10,000 cells/well at 24 hours prior to assay. • 2. Incubate at 37° C. in 5% CO2. Day Two: • 1. Wash each well with assay buffer (see below) and leave 20 RI using plate washer, ELx-405 Select CW (BIO-TEK). • 2. Add 20 μL of assay buffer containing 6 μM Fluo-4-AM (Molecular Probes) and 0.005% Pluronic F-127 to each well. • 3. Incubate the plate at 37° C. for 1 hour. • 4. Wash each well assay buffer (see below) and leave 20 μl using plate washer, ELx-405 Select CW (BIO-TEK). • 5. Add 10 μl of compound solution into each well by FDSS6000 and leave the plate for 4.5 min, and then add 10 μl of potassium ionophore solution. • 6. Add 20 μl of high-K^+ depolarizing solution (see below) and monitor the change of fluorescent signal.
The IC50 values for compounds of the present invention were determined from 7-point dose-response studies. Curves were generated using the average of duplicate wells for each data point. Finally, the IC50 values are calculated with the best-fit dose curve determined by XLfit.

T1 sequence (O95180 whole entry): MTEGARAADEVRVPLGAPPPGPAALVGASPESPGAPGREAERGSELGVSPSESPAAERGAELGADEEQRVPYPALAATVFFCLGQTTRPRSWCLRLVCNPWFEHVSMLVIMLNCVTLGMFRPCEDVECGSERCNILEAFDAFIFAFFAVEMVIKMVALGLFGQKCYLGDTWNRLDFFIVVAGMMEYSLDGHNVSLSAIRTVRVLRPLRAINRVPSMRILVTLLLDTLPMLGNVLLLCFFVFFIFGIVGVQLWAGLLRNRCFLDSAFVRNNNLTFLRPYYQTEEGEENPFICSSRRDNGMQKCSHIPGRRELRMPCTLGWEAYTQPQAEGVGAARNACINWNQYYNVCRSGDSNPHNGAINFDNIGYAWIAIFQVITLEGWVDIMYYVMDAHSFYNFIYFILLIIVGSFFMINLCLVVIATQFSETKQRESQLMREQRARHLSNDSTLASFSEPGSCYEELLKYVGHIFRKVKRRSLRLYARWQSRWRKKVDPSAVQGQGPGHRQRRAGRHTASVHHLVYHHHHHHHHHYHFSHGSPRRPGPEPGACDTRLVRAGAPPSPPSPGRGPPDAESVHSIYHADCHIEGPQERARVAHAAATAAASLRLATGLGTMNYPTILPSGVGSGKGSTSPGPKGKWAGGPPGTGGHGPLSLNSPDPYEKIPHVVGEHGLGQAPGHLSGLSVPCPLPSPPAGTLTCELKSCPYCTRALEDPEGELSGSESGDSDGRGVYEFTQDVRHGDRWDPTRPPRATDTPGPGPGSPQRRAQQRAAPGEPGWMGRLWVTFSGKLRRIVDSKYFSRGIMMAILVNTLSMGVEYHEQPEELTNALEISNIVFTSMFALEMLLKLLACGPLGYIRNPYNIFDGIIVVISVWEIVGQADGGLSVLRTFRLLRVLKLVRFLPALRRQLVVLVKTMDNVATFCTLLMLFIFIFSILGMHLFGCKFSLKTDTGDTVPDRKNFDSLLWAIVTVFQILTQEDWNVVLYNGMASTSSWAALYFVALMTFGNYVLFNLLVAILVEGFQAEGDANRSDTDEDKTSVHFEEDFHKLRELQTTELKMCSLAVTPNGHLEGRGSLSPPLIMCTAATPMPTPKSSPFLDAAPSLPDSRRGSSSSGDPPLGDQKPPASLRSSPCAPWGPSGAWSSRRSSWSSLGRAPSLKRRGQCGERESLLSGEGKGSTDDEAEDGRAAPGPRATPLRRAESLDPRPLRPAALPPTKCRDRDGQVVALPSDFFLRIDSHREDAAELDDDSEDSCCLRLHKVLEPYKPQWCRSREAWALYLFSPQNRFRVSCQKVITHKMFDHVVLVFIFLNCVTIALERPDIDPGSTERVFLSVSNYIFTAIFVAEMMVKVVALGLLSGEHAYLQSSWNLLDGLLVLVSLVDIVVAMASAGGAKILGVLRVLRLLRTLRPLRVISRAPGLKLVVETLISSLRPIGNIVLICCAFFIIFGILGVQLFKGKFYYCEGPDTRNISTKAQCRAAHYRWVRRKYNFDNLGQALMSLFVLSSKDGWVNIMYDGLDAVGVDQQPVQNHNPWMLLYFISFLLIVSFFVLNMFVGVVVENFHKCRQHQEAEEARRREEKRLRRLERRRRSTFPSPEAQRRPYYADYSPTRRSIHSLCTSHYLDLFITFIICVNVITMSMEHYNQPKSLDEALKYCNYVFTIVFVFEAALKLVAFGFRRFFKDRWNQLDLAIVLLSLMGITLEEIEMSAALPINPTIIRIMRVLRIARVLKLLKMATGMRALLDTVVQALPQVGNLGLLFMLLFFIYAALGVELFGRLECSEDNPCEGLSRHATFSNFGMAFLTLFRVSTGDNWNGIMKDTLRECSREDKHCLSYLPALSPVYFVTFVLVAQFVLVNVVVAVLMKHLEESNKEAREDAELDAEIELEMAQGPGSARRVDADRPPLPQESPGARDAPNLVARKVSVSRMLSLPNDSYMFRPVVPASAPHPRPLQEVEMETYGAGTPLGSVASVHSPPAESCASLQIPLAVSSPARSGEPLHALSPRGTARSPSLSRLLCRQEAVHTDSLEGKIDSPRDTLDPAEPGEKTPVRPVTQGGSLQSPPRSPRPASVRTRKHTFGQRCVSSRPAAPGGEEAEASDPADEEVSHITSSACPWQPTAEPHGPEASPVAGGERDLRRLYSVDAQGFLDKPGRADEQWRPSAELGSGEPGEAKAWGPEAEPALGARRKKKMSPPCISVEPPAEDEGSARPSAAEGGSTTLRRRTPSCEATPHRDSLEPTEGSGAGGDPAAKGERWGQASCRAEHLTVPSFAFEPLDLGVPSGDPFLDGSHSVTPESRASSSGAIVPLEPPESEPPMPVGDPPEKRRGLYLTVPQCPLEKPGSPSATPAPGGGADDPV

SMILES | IC50 [nM]
C[C@@H](NC(=O)[C@H]1C[C@@H]1c1c[nH]c2ccccc12)c1ccc(OCC(F)(F)F)cn1 (relative stereo) [Example 133, (1S*,2S*)-2-(1H-indol-3-yl)-N-((R)-1-(5-(2,2,2-trifluoroethoxy)pyridin-2-yl)ethyl)cyclopropanecarboxamide] | ≤ 300
C[C@@H](NC(=O)[C@@H]1C[C@H]1c1c[nH]c2ccccc12)c1ccc(OCC(F)(F)F)cn1 (relative stereo) [Example 134, (1R*,2R*)-2-(1H-indol-3-yl)-N-((R)-1-(5-(2,2,2-trifluoroethoxy)pyridin-2-yl)ethyl)cyclopropanecarboxamide] | ≤ 300
C[C@@H](NC(=O)[C@H]1C[C@@H]1c1ccc2cc[nH]c2c1)c1ccc(OCC(F)(F)F)cn1 (relative stereo) [Example 203, (1S*,2S*)-2-(1H-indol-6-yl)-N-((R)-1-(5-(2,2,2-trifluoroethoxy)pyridin-2-yl)ethyl)cyclopropanecarboxamide] | ≤ 300
C[C@@H](NC(=O)[C@@H]1C[C@H]1c1ccc2cc[nH]c2c1)c1ccc(OCC(F)(F)F)cn1 (relative stereo) [Example 204, (1R*,2R*)-2-(1H-indol-6-yl)-N-((R)-1-(5-(2,2,2-trifluoroethoxy)pyridin-2-yl)ethyl)cyclopropanecarboxamide] | ≤ 300
C[C@@H](NC(=O)[C@@H]1C[C@H]1c1ccc2ccccc2n1)c1cnc(OCC(F)(F)F)cn1 (relative stereo) [Example 222, (1R*,2R*)-2-(quinolin-2-yl)-N-((R)-1-(5-(2,2,2-trifluoroethoxy)pyrazin-2-yl)ethyl)cyclopropanecarboxamide] | ≤ 300
C[C@@H](NC(=O)[C@H]1C[C@@H]1c1cc2ccccc2[nH]1)c1ccc(OCC(F)(F)F)nc1 (relative stereo) [Example 223, (1S*,2S*)-2-(1H-indol-2-yl)-N-((R)-1-(6-(2,2,2-trifluoroethoxy)pyridin-3-yl)ethyl)cyclopropanecarboxamide] | ≤ 300
C[C@@H](NC(=O)[C@@H]1C[C@H]1c1cc2ccccc2[nH]1)c1ccc(OCC(F)(F)F)nc1 (relative stereo) [Example 224, (1R*,2R*)-2-(1H-indol-2-yl)-N-((R)-1-(6-(2,2,2-trifluoroethoxy)pyridin-3-yl)ethyl)cyclopropanecarboxamide] | ≤ 300
C[C@@H](NC(=O)[C@H]1C[C@@H]1c1cc2ccccc2[nH]1)c1cnc(OCC(F)(F)F)cn1 (relative stereo) [Example 225, (1S*,2S*)-2-(1H-indol-2-yl)-N-((R)-1-(5-(2,2,2-trifluoroethoxy)pyrazin-2-yl)ethyl)cyclopropanecarboxamide] | ≤ 300
C[C@@H](NC(=O)[C@@H]1C[C@H]1c1cc2ccccc2[nH]1)c1cnc(OCC(F)(F)F)cn1 (relative stereo) [Example 226, (1R*,2R*)-2-(1H-indol-2-yl)-N-((R)-1-(5-(2,2,2-trifluoroethoxy)pyrazin-2-yl)ethyl)cyclopropanecarboxamide] | ≤ 300
C[C@@H](NC(=O)[C@H]1C[C@@H]1c1ccc2cnn(C)c2c1)c1ccc(OCC(F)(F)F)cn1 (relative stereo) [Example 227, (1S*,2S*)-2-(1-methyl-1H-indazol-6-yl)-N-((R)-1-(5-(2,2,2-trifluoroethoxy)pyridin-2-yl)ethyl)cyclopropanecarboxamide] | ≤ 300
C[C@@H](NC(=O)[C@H]1C[C@@H]1c1ccc(OCc2ccccc2)cc1)c1ccc(OCC(F)(F)F)cn1 (relative stereo) [Example 237, (1S*,2S*)-2-(4-(benzyloxy)phenyl)-N-((R)-1-(5-(2,2,2-trifluoroethoxy)pyridin-2-yl)ethyl)cyclopropanecarboxamide] | ≤ 300
C[C@@H](NC(=O)[C@H]1C[C@@H]1c1ccc(F)cc1Cl)c1ccc(OCC(F)(F)F)cn1 (relative stereo) [Example 246, (1S*,2S*)-2-(2-chloro-4-fluorophenyl)-N-((R)-1-(5-(2,2,2-trifluoroethoxy)pyridin-2-yl)ethyl)cyclopropanecarboxamide] | ≤ 300
COc1ccc([C@H]2C[C@@H]2C(=O)N[C@H](C)c2ccc(OCC(F)(F)F)cn2)c(F)c1 (relative stereo) [Example 248, (1S*,2S*)-2-(2-fluoro-4-methoxyphenyl)-N-((R)-1-(5-(2,2,2-trifluoroethoxy)pyridin-2-yl)ethyl)cyclopropanecarboxamide] | ≤ 300
C[C@@H](NC(=O)[C@H]1C[C@@H]1c1c(F)cc(F)cc1F)c1ccc(OCC(F)(F)F)cn1 (relative stereo) [Example 250, (1S*,2S*)-N-((R)-1-(5-(2,2,2-trifluoroethoxy)pyridin-2-yl)ethyl)-2-(2,4,6-trifluorophenyl) cyclopropanecarboxamide] | ≤ 300
Cc1cccc([C@H]2C[C@@H]2C(=O)N[C@H](C)c2ccc(OCC(F)(F)F)cn2)c1 (relative stereo) [Example 251, (1S*,2S*)-2-m-tolyl-N-((R)-1-(5-(2,2,2-trifluoroethoxy)pyridin-2-yl)ethyl)cyclopropanecarboxamide] | ≤ 300
C[C@@H](NC(=O)[C@H]1C[C@@H]1c1cc(F)cc(F)c1)c1ccc(OCC(F)(F)F)cn1 (relative stereo) [Example 253, (1S*,2S*)-2-(3,5-difluorophenyl)-N-((R)-1-(5-(2,2,2-trifluoroethoxy)pyridin-2-yl)ethyl)cyclopropanecarboxamide] | ≤ 300
COc1cccc([C@H]2C[C@@H]2C(=O)N[C@H](C)c2ccc(OCC(F)(F)F)cn2)c1 (relative stereo) [Example 258, (1S*,2S*)-2-(3-methoxyphenyl)-N-((R)-1-(5-(2,2,2-trifluoroethoxy)pyridin-2-yl)ethyl)cyclopropanecarboxamide] | ≤ 300
COc1ccc([C@H]2C[C@@H]2C(=O)N[C@H](C)c2ccc(OCC(F)(F)F)cn2)cc1 (relative stereo) [Example 259, (1S*,2S*)-2-(4-methoxyphenyl)-N-((R)-1-(5-(2,2,2-trifluoroethoxy)pyridin-2-yl)ethyl)cyclopropanecarboxamide] | ≤ 300
C[C@@H](NC(=O)[C@@H]1C[C@H]1c1nc2ccccc2[nH]1)c1ccc(OCC(F)(F)F)cn1 (relative stereo) [Example 260, (1R*,2R*)-2-(1H-benzo[d]imidazol-2-yl)-N-((R)-1-(5-(2,2,2-trifluoroethoxy)pyridin-2-yl)ethyl)cyclopropanecarboxamide] | ≤ 300
C[C@@H](NC(=O)[C@H]1C[C@@H]1c1ccc(F)cc1Cl)c1ccc(OCC2CC2)cn1 (relative stereo) [Example 261, (1S*,2S*)-2-(2-chloro-4-fluorophenyl)-N-((R)-1-(5-(cyclopropylmethoxy)pyridin-2-yl)ethyl)cyclopropanecarboxamide] | ≤ 300
COc1ccc([C@H]2C[C@@H]2C(=O)N[C@H](C)c2ccc(OCC3CC3)cn2)c(F)c1 (relative stereo) [Example 263, (1S*,2S*)-N-((R)-1-(5-(cyclopropylmethoxy)pyridin-2-yl)ethyl)-2-(2-fluoro-4-methoxy-phenyl)cyclopropanecarboxamide] | ≤ 300
C[C@@H](NC(=O)[C@@H]1C[C@H]1c1c(F)cc(F)cc1F)c1ccc(OCC2CC2)cn1 (relative stereo) [Example 266] | ≤ 300
Cc1cccc([C@H]2C[C@@H]2C(=O)N[C@H](C)c2ccc(OCC3CC3)cn2)c1 (relative stereo) [Example 267, (1S*,2S*)-N-((R)-1-(5-(cyclopropylmethoxy)pyridin-2-yl)ethyl)-2-m-tolylcyclopropanecarboxamide] | ≤ 300
C[C@@H](NC(=O)[C@H]1C[C@@H]1c1ccc(F)cc1Cl)c1cnc(OCC(F)(F)F)cn1 (relative stereo) [Example 268, (1S*,2S*)-2-(2-chloro-4-fluorophenyl)-N-((R)-1-(5-(2,2,2-trifluoroethoxy)pyrazin-2-yl)ethyl)cyclopropanecarboxamide] | ≤ 300
COc1ccc([C@H]2C[C@@H]2C(=O)N[C@H](C)c2cnc(OCC(F)(F)F)cn2)c(F)c1 (relative stereo) [Example 270, (1S*,2S*)-2-(2-fluoro-4-methoxyphenyl)-N-((R)-1-(5-(2,2,2-trifluoroethoxy)pyrazin-2-yl)ethyl)cyclopropanecarboxamide] | ≤ 300
C[C@@H](NC(=O)[C@H]1C[C@@H]1c1c(F)cc(F)cc1F)c1cnc(OCC(F)(F)F)cn1 (relative stereo) [Example 271, (1S*,2S*)-N-((R)-1-(5-(2,2,2-trifluoroethoxy)pyrazin-2-yl)ethyl)-2-(2,4,6-trifluorophenyl) cyclopropanecarboxamide] | ≤ 300
Cc1cccc([C@H]2C[C@@H]2C(=O)N[C@H](C)c2cnc(OCC(F)(F)F)cn2)c1 (relative stereo) [Example 273, (1S*,2S*)-2-m-tolyl-N-((R)-1-(5-(2,2,2-trifluoroethoxy)pyrazin-2-yl)ethyl)cyclopropanecarboxamide] | ≤ 300
